# Measured values as given in patent publication US12607622B2, “Method for diagnosing and monitoring inflammatory disease progression” (MCMASTER UNIVERSITY, priority 2013, dated 2026).
# Tested on: BDNF
# Test: BDNF transcript expression in the uterus of ovariectomized mice by Real Time PCR
# Format: in vivo
# Settings: estradiol primed, Real Time PCR relative expression, FIG. 8
# Description: BDNF transcripts were measured in the murine uterus of ovariectomized mice by Real Time PCR and relative expression quantified in mice receiving saline (Control (n=4)), estradiol primed then estradiol (E2 (n=6)), estradiol primed then progesterone (P4 (n=6)), estradiol primed then estradiol+progesterone (E2+P4 (n=6)), or estradiol primed then saline (Saline (n=4). [table]
smiles,measurement,value
"CC(=O)[C@H]1CC[C@H]2[C@@H]3CCC4=CC(=O)CC[C@]4(C)[C@H]3CC[C@]12C [P4, progesterone]",BDNF expression in the uterus,significantly increased
